Data from publication PMC8705818, “Experimental Characterization of the Interaction between the N-Terminal SH3 Domain of Crkl and C3G” (International Journal of Molecular Sciences, 2021).
Peptide text beside a SMILES is read from it. * marks the point of attachment. Dansyl = CN(C)c1cccc2c(S(=O)(=O)*)cccc12

Molecular target: T1, N-SH3 D141A (Crkl) (Homo sapiens, UniProt P46109, D141A)
T1 construct: The construct encoding the N-SH3 domain of Crkl was subcloned in a pET28b+ plasmid vector; His-tag; made in house; host or cells: E. coli BL21
Assay: Stopped-flow displacement, N-SH3 D141A:dansyl-C3G277–296 complex
Assay type: binding
Conditions: Hepes 50 mM pH 7.0 + 20% w/v sucrose, 10 °C
Method: To further investigate this aspect, we resorted to performing displacement experiments, targeted to the direct calculation of microscopic dissociation rate constant koff. […] To test this and to slow down the diffusion of molecules, we repeated the experiment increasing the viscosity of the solution adding 20% w/v sucrose to the buffer Hepes 50 mM pH 7.0. Although the trace was satisfactorily fitted with a single-exponential equation, the koff calculated is 800 ± 30 s^−1, a value that is far beyond the resolution capability of the stopped-flow, a consistent part of the reaction occurring in the dead time of the instrument. Based on the calculated affinity of D141A variant for C3G in the absence of sucrose, this dramatic increase in koff might be accompanied by a strong increase in kon.
Kinetic binding experiments were performed on a single-mixing SX-18 stopped-flow instrument (Applied Photophysics), by mixing a constant concentration (0.5 μM) of C3G dansylated versus increasing concentrations of N-SH3 at 10 °C. Ionic strength dependence of wt N-SH3 was performed with concentrations ranging from 1 to 5 µM for 0 M NaCl condition and from 0.5 to 5 µM for 0.15 M, 0.3 M, 0.5 M and 1 M NaCl, buffer Hepes 50 mM pH 7.0. The excitation wavelength was 280 nm, and fluorescence was collected using a 455 nm cut-off filter. […]

T1 sequence (P46109 123-183 D141A limits assumed): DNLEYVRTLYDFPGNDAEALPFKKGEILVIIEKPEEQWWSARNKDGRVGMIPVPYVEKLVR

## CC(C)C[C@H](NC(=O)[C@H](C)NC(=O)[C@@H]1CCCN1C(=O)[C@@H]1CCCN1C(=O)[C@@H]1CCCN1C(=O)[C@H](CO)NC(=O)[C@H](CC(N)=O)NC(=O)[C@H](CC(=O)O)NC(=O)[C@@H](NC(=O)[C@@H](NS(=O)(=O)c1cccc2c(N(C)C)cccc12)C(C)C)C(C)C)C(=O)N1CCC[C@H]1C(=O)N1CCC[C@H]1C(=O)N[C@@H](CCCCN)C(=O)N[C@@H](CCCCN)C(=O)N[C@@H](CCCNC(=N)N)C(=O)N[C@@H](CCC(N)=O)C(=O)N[C@@H](CO)C(=O)N[C@@H](C)C(=O)N1CCC[C@H]1C(=O)N[C@@H](CO)C(=O)O [dansyl-C3G277–296] (Dansyl-VVDNSPPPALPPKKRQSAPS-OH)
  koff: 800 ± 30 s⁻¹
